# Assays:
# Assay type in all cases: cell-based
# [1] = tested on: U87MG cells; experiment: U87MG cell proliferation, MTS assay; conditions: 72 h
# Method: FIG. 1 illustrates the effects of SA16 on U87MG cell proliferation of example 3 (a). U87MG cells were treated in complete medium with different concentrations of SA16 (1 nM-100 μM) for 72 h. At the end of treatment, cell proliferation was measured using the MTS assay. The data are expressed as a percentage with respect to that of untreated cells (control), which was set to 100%, and are the mean values±SEM of three independent experiments, each performed in duplicate. The significance of the differences was determined with a one-way ANOVA with Bonferroni post-test: * p<0.05, ** p<0.01, *** p<0.001 vs. control cells;
# FIG. 2 illustrates the combined inhibition of PDK1 and Aurora A on U87MG cell proliferation of example 3a. U87MG cells were treated in complete medium with different concentrations of MP7, in the presence or absence of Alisertib, for 72 h. At the end of treatment, cell proliferation was measured using the MTS assay. The data are expressed as a percentage with respect to that of untreated cells (control), which was set to 100%, and are the mean values±SEM of three independent experiments, each performed in duplicate. The significance of the differences was determined with a one-way ANOVA with Bonferroni post-test: * p<0.05, *** p<0.001 vs. control cells; ## p<0.01, ### p<0.001 vs. cells treated with MP7 alone; §§ p<0.01, § § § p<0.001 vs. cells treated with Alisertib alone;
# To examine the effects of SA16 on U87MG cell growth/survival, U87MG cells were incubated with different concentrations of the compound SA16 (1 nM-10 μM) for 72 h.
# In parallel experiments, U87MG proliferation was assessed in the presence of a well-known PDK1 inhibitor MP7, alone or in combination with the Aurora A inhibitor, Alisertib.
# [2] = tested on: cancer stem cell (CSC) neurospheres obtained from U87MG cells; experiment: CSC (GBM stem cell) proliferation, MTS assay; conditions: seven days
# Method: FIG. 3 illustrates the effects of SA16 on CSC proliferation of example 3b. CSCs were treated in complete neurosphere medium with different concentrations of SA16 (1 nM-100 μM) for seven days. At the end of treatment, cell proliferation was measured using the MTS assay. The data are expressed as a percentage with respect to that of untreated cells (control), which was set to 100%, and are the mean values±SEM of three independent experiments, each performed in duplicate. IC50 value after seven days of treatment were calculated from sigmoid dose-response curve;
# FIG. 4 illustrates combined inhibition of PDK1 and Aurora A on CSCs proliferation of example 3b. CSCs were treated in complete medium with different concentrations of MP7, in the presence or absence of Alisertib, for seven days. At the end of treatment, cell proliferation was measured using the MTS assay.
# The data are expressed as a percentage with respect to that of untreated cells (control), which was set to 100%, and are the mean values±SEM of three independent experiments, each performed in duplicate. The significance of the differences was determined with a one-way ANOVA with Bonferroni post-test: * p<0.05, *** p<0.001 vs. control cells; ## p<0.01, ### p<0.001 vs. cells treated with MP7 alone; §§ p<0.01, § § § p<0.001 vs. cells treated with Alisertib alone;
# The inventors also examined the effects of SA16 compound on cancer stem cell (CSC) neurospheres obtained from U87MG cells.
# [3] = tested on: CSC neurospheres; experiment: Sphere-derived cell morphology (neurosphere area, outgrowth of cellular processes); conditions: seven days; SA16 10 nM, 1 μM, 10 μM; 2.5 PIM MP7, 1.5 μM Alisertib
# Method: FIG. 5 illustrates the effects of SA16 on sphere-derived cell morphology of Example 3c. CSCs were treated for seven days with complete NSC medium containing DMSO (control), or SA16 (10 nM, 1 μM, 10 μM) (A) Representative cell micrographs of control and SA16 (10 μM) after seven days of treatment are shown. The area of the culture plates occupied by the spheres (B) and the length of cellular processes (C) were scored after seven days of treatment. The counts represent the mean values±SEM of two independent experiments. The significance of differences was determined with a one-way ANOVA with Bonferroni post-test: * p<0.05, ** p<0.01, *** p<0.001 vs. control cells.
# FIG. 7 illustrates the effects of MP7, Alisertib and of their combined treatment on sphere-derived cell morphology of example 3c. CSCs were treated for seven days with complete NSC medium containing DMSO (control), MP7 and/or alisertib (A) Representative cell micrographs after seven days of treatment are shown. The area of the culture plates occupied by the spheres (B) and the length of cellular processes (C) were scored after seven days of treatment. The counts represent the mean values±SEM of two independent experiments. The significance of differences was determined with a one-way ANOVA with Bonferroni post-test: * p<0.05, *** p<0.001 vs. control cells; ## p<0.01 vs. cells treated with MP7 alone; § p<0.05 vs. cells treated with Alisertib alone.
# The effects of SA16 on morphology of neurospheres were evaluated by quantifying the area occupied by the cells in culture plates, as well as the outgrowth of cellular processes.
# The inventors then evaluated the effects of MP7, Alisertib and of their combination on CSC differentiation. The cells were incubated with […] MP7, alone or in combination with 1.5 μM Alisertib for seven days.
compound,measurement,setting,value
"O=C(N[C@@H](COc1ccc2[nH]c(=O)[nH]c2c1)c1ccccc1)c1cccn(Cc2ccc(F)c(F)c2)c1=O [MP7, 1-(3,4-difluorobenzyl)-2-oxo-N-{(1R)-2-[(2-oxo-2,3-dihydro-1H-benzimidazol-5-yl)oxy]-1-phenylethyl}-1,2-dihydropyridine-3-carboxamide]",effect on U87MG cell proliferation (in words),[1],did not show a significant inhibition of cell proliferation
same,effect on CSC proliferation (in words),[2],slight effects on U87MG proliferation
same,area occupied by the neurospheres,[3],reduction in the area occupied by the neurospheres

# From patent US20190160049A1, “2-OXO-1,2-DIHYDROPYRIDINE-3-CARBOXAMIDE COMPOUNDS AND THEIR USE AS DUAL INHIBITORS OF PDK1/AURA” (INTERNATIONAL SOCIETY FOR DRUG DEVELOPMENT S.R.L., priority 2016, published 2019)
